{"source": "patent US10624917B2", "about": "“Compositions and methods useful for treating or preventing liver diseases or disorders, and promoting weight loss” (YALE UNIVERSITY, priority 2014, dated 2020)", "key": {"[1]": {"system": "IL-1β production in bone marrow derived macrophages", "test": "IL-1β secretion by LPS/ATP-stimulated bone marrow derived macrophages", "format": "cell-based, mouse", "details": "LPS and ATP", "procedure": "(§1) FIGS. 6A-6B illustrate the finding that bone marrow macrophages and liver Kupffer cells increase IL-1β in response to adenosine signaling. FIG. 6A: Murine bone marrow derived macrophages (BMDM) were primed with LPS for 16 hours, treated with NECA (10 μM) for 1 hour, and then pulsed with ATP. FIG. 6b: Primary murine liver Kupffer cells were primed with LPS for 16 hours, treated with NECA (10 μM) for 1 hour, and then pulsed with ATP. IL-1β secretion was measured in supernatants 5 hours after pulsing with ATP. Data are expressed as the mean±SD from at least three independent experiments. *p<0.05 determined by Student's t-test.\n(§2) C57BL/6 mice were purchased from the National Cancer Institute. ASC−/−, Caspase-1−/−, Nlrp3−/− and P2xr7−/− mice have been described (Rock et al., 2010, Annu Rev Immunol. 28:321-42). A2ora2a flox/flox mice and LysMcre mice were purchased from Jackson Laboratories. HIF-1a flox/flox mice were kindly provided by Dr. Ruslan M Medzhitov (Yale University). 7- to 12-week-old males with a variety of genetic manipulations were used in most experiments. […]\n(§3) Primed PECs were both pulsed for 20 min with 5 mM ATP or 10 μM nigericin, and left untreated until culture supernatants were collected. Secretion of IL-1β was determined by enzyme-linked immunoabsorbent assay (ELISA; R&D Systems)."}, "[2]": {"system": "IL-1β production in liver Kupffer cells", "test": "IL-1β secretion by LPS/ATP-stimulated Kupffer cells", "format": "cell-based, mouse", "details": "LPS and ATP", "procedure": "as §1, §2, §3"}}}
{"smiles": "CCNC(=O)[C@H]1O[C@@H](n2cnc3c(N)ncnc32)[C@H](O)[C@@H]1O", "note": "[NECA, 5′-(N-ethylcarboxamido) adenosine]", "values": [{"measurement": "IL-1β production", "setting": "[1]", "result": "significantly increased"}, {"measurement": "IL-1β production", "setting": "[2]", "result": "significantly increased"}]}
